Reference: article PMC9386018, “A lymphatic-absorbed multi-targeted kinase inhibitor for myelofibrosis therapy” (Nature Communications, 2022)
Values joined by “and” are separate entries in the source; they are usually repeats but may differ in a detail not shown here. Identical values can stand only once.

Assay: Rat mesenteric lymph duct cannulation model: lymphatic fluid and blood
Assay type: in vivo
Conditions: anesthetized rats; for Lymphatic fluid Concentration (ng/mL or ng/g): individual animals
Protocol: A rat mesenteric lymph duct cannulation model was used to collect and quantify LP-182 in lymphatic fluid, blood, and lymphatic proteo-lipid sub-fractions similar to previously described methods[37],[40]. Male Sprague-Dawley rats (n = 7) were anesthetized by isoflurane (Piramel, PA) and placed on a heated pad maintained at 37 °C using a Kent Scientific (Torrington, CT) low flow vaporizer and SomnoSuite for pulse oximetry and thermal regulation, respectively. The carotid artery, mesenteric lymph duct and duodenum were cannulated, and normal saline was continuously infused into the duodenum at 1.7 mL h^−1 using a constant rate infusion pump. After approx. 0.5 h, 50 mg kg^−1 of LP-182 solubilized in ~1.7 mL of either Maisine CC or a mixture of 93% Maisine CC and 7% Labrasol (Gattefossé; Saint-Priest, France) was infused over 1 h into the duodenum, followed by normal saline (as above) for the duration of the experiment. Hourly fractions of lymphatic fluid were collected continually (rate of ~0.5–1.2 mL h^−1) for approx. 6 h, while arterial blood samples (10–20 µL) were collected once per hour and stored at −20 °C for future analysis. Lymphatic fluid time course samples were either frozen or pooled for subsequent fractionation by ultracentrifugation to isolate proteo-lipid sub-fractions similar to previously described methods. Separation of chylomicrons was achieved by layering lymphatic fluid under PBS (Gibco; ThermoFisher Scientific) in a polyallomer ultracentrifuge tube (Beckman, CA), and centrifugation in a L8-70M ultracentrifuge (Beckman, CA) at 202,048 x g using a SW40Ti rotor (Beckman, CA) for 95 min at 15 °C. Following centrifugation, the semi-solid chylomicron layer at the top of the centrifuge tube was recovered and stored at −20 °C for future analysis. After replacing the void volume with PBS, the bottom layer underwent further ultracentrifugation for an additional 16 h as above, at which time a viscous dispersion of VLDL was collected from the top of the tube, and an aqueous fraction containing LDL/HDL from the bottom, which were stored at −20 °C for future analysis. All lymphatic fluid, blood, and fractionated chylomicron, VLDL, and LDL/HDL samples were analyzed by mass spectrometry for quantitation of LP-182 as outlined below. Relative LP-182 in lymphatic fluid proteo-lipid sub-fractions was calculated as the amount of compound in a specified fraction as a percentage of the cumulative amount of compound measured in all fractions. […] Relative LP-182 in blood was calculated as the amount of compound measured in a specified temporal fraction of blood as a percentage of the amount of compound measured in an equal volume of the same temporal fraction of lymphatic fluid, with the average calculated from all fractions. Data was generated from n = 2 individual animals sampled per time point per study condition due to limitations in blood volume collection.
Standards and compound extraction from biological fluids or tissues was performed using similar protocols, all resulting in recoveries ≥90%. Briefly, acetonitrile was added to a final concentration of 60–80% to bone marrow, whole blood, plasma, lymphatic fluid, lymphatic proteo-lipid sub-fractions, or mesenteric lymph node samples for compound extraction. Extraction was performed by shaking and/or bead rupture using a Precellys Evolution tissue homogenizer (Bertin Technologies SAS). […] Optimization of MS and MS/MS parameters for MRM quantitation and maximum sensitivity of individual compounds was performed using SCIEX Analyst software (AB Sciex). […] All LC-MS/MS acquisitions were performed with an independent standard curve for each group of analytes and for each individual run. All solvents utilized were of Optima LC-MS Grade (Fisher Scientific). Data was generated from n ≥ 2 individual animals per compound per study condition or dose.

[1] = 1 h intra-duodenal infusion 50 mg kg^−1, 6 h

Compound: O=C(NOCCOCCOCCOCCC(=O)N1CCN(c2cnc3ccc(-c4cnc(Cl)c(NS(=O)(=O)c5ccc(F)cc5)c4)cc3n2)CC1)c1ccc(F)c(F)c1Nc1ccc(I)cc1F [LP-182, N-(2-(2-(2-(3-(4-(7-(6-chloro-5-((4-fluorophenyl)sulfonamido)pyridin-3-yl)quinoxalin-2-yl)piperazin-1-yl)-3-oxopropoxy)ethoxy)ethoxy)ethoxy)-3,4-difluoro-2-((2-fluoro-4-iodophenyl)amino)benzamide]
- Lymphatic fluid Concentration (ng/mL or ng/g) (1 h intra-duodenal infusion 50 mg kg^−1, 0 h): 0 ng/mL or ng/g
- Lymphatic fluid Concentration (ng/mL or ng/g) (1 h intra-duodenal infusion 50 mg kg^−1, 1 h): 1075.78 ng/mL or ng/g and 810.78 ng/mL or ng/g and 1128.99 ng/mL or ng/g and 810.9 ng/mL or ng/g and 526.14 ng/mL or ng/g and 195.59 ng/mL or ng/g and 1185.4 ng/mL or ng/g
- Lymphatic fluid Concentration (ng/mL or ng/g) (1 h intra-duodenal infusion 50 mg kg^−1, 2 h): 15938.1 ng/mL or ng/g and 4987.49 ng/mL or ng/g and 11915.5 ng/mL or ng/g and 8277.36 ng/mL or ng/g and 1691.13 ng/mL or ng/g and 3232.84 ng/mL or ng/g and 9168 ng/mL or ng/g
- Lymphatic fluid Concentration (ng/mL or ng/g) (1 h intra-duodenal infusion 50 mg kg^−1, 3 h): 11950.5 ng/mL or ng/g and 2555.63 ng/mL or ng/g and 6787.62 ng/mL or ng/g and 11961.6 ng/mL or ng/g and 3014.24 ng/mL or ng/g and 1175.13 ng/mL or ng/g and 13326 ng/mL or ng/g
- Lymphatic fluid Concentration (ng/mL or ng/g) (1 h intra-duodenal infusion 50 mg kg^−1, 4 h): 4407.66 ng/mL or ng/g and 5844.35 ng/mL or ng/g and 3822.74 ng/mL or ng/g and 8176.6 ng/mL or ng/g and 1916.83 ng/mL or ng/g and 592.35 ng/mL or ng/g and 6976.86 ng/mL or ng/g
- Lymphatic fluid Concentration (ng/mL or ng/g) (1 h intra-duodenal infusion 50 mg kg^−1, 5 h): 4529.02 ng/mL or ng/g and 3482.33 ng/mL or ng/g and 3674.05 ng/mL or ng/g and 7088.41 ng/mL or ng/g and 2106.37 ng/mL or ng/g and 169.31 ng/mL or ng/g and 7019.83 ng/mL or ng/g
- level in blood as % of total compound measured among each set of temporal fractions [1]: 1.7%
- Lymphatic fluid Concentration (ng/mL or ng/g) [1]: 2432.36 ng/mL or ng/g and 2631.07 ng/mL or ng/g and 1756.69 ng/mL or ng/g and 8133.27 ng/mL or ng/g and 2059.99 ng/mL or ng/g and 330.98 ng/mL or ng/g and 2839 ng/mL or ng/g
